# Laboratory results reported in PubChem BioAssay (NCI).
#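 Protocol summary: plate cells (96-well), add compound at 5 concentrations, incubate 48 h, interpolate endpoints linearly. Definition used: TGI = concentration required for complete inhibition of growth.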
# What was measured:
# Experiment in all cases: growth of human tumour cells (NCI), 48 h
# SK-MEL-2 melanoma = system: SK-MEL-2 melanoma
# SF-539 CNS = system: SF-539 CNS
# XF 498 CNS = system: XF 498 CNS
# DLD-1 colon = system: DLD-1 colon
# HL-60(TB) leukemia = system: HL-60(TB) leukemia
# LOX IMVI melanoma = system: LOX IMVI melanoma
# ACHN renal = system: ACHN renal
# HCT-116 colon = system: HCT-116 colon
# KM12 colon = system: KM12 colon
# DMS 114 small cell lung = system: DMS 114 small cell lung
# SK-MEL-28 melanoma = system: SK-MEL-28 melanoma
# SF-295 CNS = system: SF-295 CNS
# HOP-62 NSCLC = system: HOP-62 NSCLC
# NCI-H460 lung = system: NCI-H460 lung
# CCRF-CEM leukemia = system: CCRF-CEM leukemia
# K-562 leukemia = system: K-562 leukemia
# DMS 273 small cell lung = system: DMS 273 small cell lung
# HCT-15 colon = system: HCT-15 colon
# EKVX NSCLC = system: EKVX NSCLC
# SW-620 colon = system: SW-620 colon
# NCI-H23 lung = system: NCI-H23 lung
# CAKI-1 renal = system: CAKI-1 renal
# SF-268 CNS = system: SF-268 CNS
# SNB-78 CNS = system: SNB-78 CNS
# SK-MEL-5 melanoma = system: SK-MEL-5 melanoma
# UO-31 renal = system: UO-31 renal
# NCI-H522 lung = system: NCI-H522 lung
# OVCAR-5 ovarian = system: OVCAR-5 ovarian
# 786-0 renal = system: 786-0 renal
# MALME-3M melanoma = system: MALME-3M melanoma
# RPMI-8226 leukemia = system: RPMI-8226 leukemia
# UACC-257 melanoma = system: UACC-257 melanoma
# OVCAR-4 ovarian = system: OVCAR-4 ovarian
# OVCAR-3 ovarian = system: OVCAR-3 ovarian
# HT29 colon = system: HT29 colon
# OVCAR-8 ovarian = system: OVCAR-8 ovarian
# SN12C renal = system: SN12C renal
# HCC-2998 colon = system: HCC-2998 colon
# SNB-19 CNS = system: SNB-19 CNS
# M19-MEL melanoma = system: M19-MEL melanoma
# A549 NSCLC = system: A549 NSCLC
# SNB-75 CNS = system: SNB-75 CNS
# HOP-18 NSCLC = system: HOP-18 NSCLC
# MOLT-4 leukemia = system: MOLT-4 leukemia
# M14 melanoma = system: M14 melanoma
# COLO 205 colon = system: COLO 205 colon
# NCI-H226 lung = system: NCI-H226 lung
# SR leukemia = system: SR leukemia
# HOP-92 NSCLC = system: HOP-92 NSCLC
# KM20L2 colon = system: KM20L2 colon
# IGROV1 ovarian = system: IGROV1 ovarian
# SK-OV-3 ovarian = system: SK-OV-3 ovarian
# A498 renal = system: A498 renal
# LXFL 529 NSCLC = system: LXFL 529 NSCLC
# TK-10 renal = system: TK-10 renal
# U251 CNS = system: U251 CNS
# UACC-62 melanoma = system: UACC-62 melanoma
# RXF 393 renal = system: RXF 393 renal
smiles,measurement,setting,value
CC(=O)Nc1ccc(C(=O)n2[nH]c(C)c(/C=C3\C(=O)C=Cc4ccccc43)c2=O)cc1,TGI,SK-MEL-2 melanoma,95.3 µM
same,TGI,SF-539 CNS,> 100 µM
same,TGI,XF 498 CNS,> 100 µM
same,TGI,DLD-1 colon,> 100 µM
same,TGI,HL-60(TB) leukemia,> 100 µM
same,TGI,LOX IMVI melanoma,> 100 µM
same,TGI,ACHN renal,> 100 µM
same,TGI,HCT-116 colon,> 100 µM
same,TGI,KM12 colon,> 100 µM
same,TGI,DMS 114 small cell lung,> 100 µM
same,TGI,SK-MEL-28 melanoma,> 100 µM
same,TGI,SF-295 CNS,> 100 µM
same,TGI,HOP-62 NSCLC,> 100 µM
same,TGI,NCI-H460 lung,> 100 µM
same,TGI,CCRF-CEM leukemia,> 100 µM
same,TGI,K-562 leukemia,> 100 µM
same,TGI,DMS 273 small cell lung,> 100 µM
same,TGI,HCT-15 colon,> 100 µM
same,TGI,EKVX NSCLC,> 100 µM
same,TGI,SW-620 colon,> 100 µM
same,TGI,NCI-H23 lung,> 100 µM
same,TGI,CAKI-1 renal,> 100 µM
same,TGI,SF-268 CNS,> 100 µM
same,TGI,SNB-78 CNS,> 100 µM
same,TGI,SK-MEL-5 melanoma,> 100 µM
same,TGI,UO-31 renal,> 100 µM
same,TGI,NCI-H522 lung,> 100 µM
same,TGI,OVCAR-5 ovarian,> 100 µM
same,TGI,786-0 renal,> 100 µM
same,TGI,MALME-3M melanoma,59.3 µM
same,TGI,RPMI-8226 leukemia,> 100 µM
same,TGI,UACC-257 melanoma,> 100 µM
same,TGI,OVCAR-4 ovarian,> 100 µM
same,TGI,OVCAR-3 ovarian,> 100 µM
same,TGI,HT29 colon,> 100 µM
same,TGI,OVCAR-8 ovarian,> 100 µM
same,TGI,SN12C renal,> 100 µM
same,TGI,HCC-2998 colon,> 100 µM
same,TGI,SNB-19 CNS,> 100 µM
same,TGI,M19-MEL melanoma,> 100 µM
same,TGI,A549 NSCLC,> 100 µM
same,TGI,SNB-75 CNS,> 100 µM
same,TGI,HOP-18 NSCLC,> 100 µM
same,TGI,MOLT-4 leukemia,> 100 µM
same,TGI,M14 melanoma,> 100 µM
same,TGI,COLO 205 colon,> 100 µM
same,TGI,NCI-H226 lung,> 100 µM
same,TGI,SR leukemia,> 100 µM
COc1ccc(C2NC3=C(CCCC3)N2)cc1,TGI,SK-MEL-2 melanoma,> 100 µM
same,TGI,SF-539 CNS,> 100 µM
same,TGI,XF 498 CNS,> 100 µM
same,TGI,DLD-1 colon,> 100 µM
same,TGI,HL-60(TB) leukemia,66 µM
same,TGI,LOX IMVI melanoma,> 100 µM
same,TGI,ACHN renal,> 100 µM
same,TGI,HCT-116 colon,> 100 µM
same,TGI,KM12 colon,> 100 µM
same,TGI,DMS 114 small cell lung,> 100 µM
same,TGI,SK-MEL-28 melanoma,> 100 µM
same,TGI,SF-295 CNS,> 100 µM
same,TGI,HOP-62 NSCLC,> 100 µM
same,TGI,HOP-92 NSCLC,> 100 µM
same,TGI,NCI-H460 lung,> 100 µM
same,TGI,CCRF-CEM leukemia,> 100 µM
same,TGI,DMS 273 small cell lung,> 100 µM
same,TGI,HCT-15 colon,> 100 µM
same,TGI,NCI-H23 lung,> 100 µM
same,TGI,SF-268 CNS,> 100 µM
same,TGI,SNB-78 CNS,> 100 µM
same,TGI,SK-MEL-5 melanoma,67.5 µM
same,TGI,UO-31 renal,> 100 µM
same,TGI,NCI-H522 lung,> 100 µM
same,TGI,OVCAR-5 ovarian,> 100 µM
same,TGI,786-0 renal,> 100 µM
same,TGI,MALME-3M melanoma,> 100 µM
same,TGI,KM20L2 colon,80.8 µM
same,TGI,IGROV1 ovarian,> 100 µM
same,TGI,RPMI-8226 leukemia,> 100 µM
same,TGI,UACC-257 melanoma,> 100 µM
same,TGI,SK-OV-3 ovarian,> 100 µM
same,TGI,OVCAR-4 ovarian,> 100 µM
same,TGI,OVCAR-3 ovarian,> 100 µM
same,TGI,HT29 colon,> 100 µM
same,TGI,OVCAR-8 ovarian,> 100 µM
same,TGI,SN12C renal,> 100 µM
same,TGI,HCC-2998 colon,> 100 µM
same,TGI,A498 renal,> 100 µM
same,TGI,M19-MEL melanoma,> 100 µM
same,TGI,LXFL 529 NSCLC,> 100 µM
same,TGI,A549 NSCLC,> 100 µM
same,TGI,TK-10 renal,> 100 µM
same,TGI,SNB-75 CNS,> 100 µM
same,TGI,MOLT-4 leukemia,> 100 µM
same,TGI,M14 melanoma,> 100 µM
same,TGI,COLO 205 colon,> 100 µM
same,TGI,NCI-H226 lung,> 100 µM
same,TGI,SR leukemia,> 100 µM
same,TGI,U251 CNS,> 100 µM
C1=CC(=NN=P(c2ccccc2)(c2ccccc2)c2ccccc2)C=C1,TGI,SK-MEL-2 melanoma,> 100 µM
same,TGI,XF 498 CNS,> 100 µM
same,TGI,DLD-1 colon,> 100 µM
same,TGI,HL-60(TB) leukemia,> 100 µM
same,TGI,LOX IMVI melanoma,> 100 µM
same,TGI,ACHN renal,> 100 µM
same,TGI,KM12 colon,> 100 µM
same,TGI,DMS 114 small cell lung,> 100 µM
same,TGI,SK-MEL-28 melanoma,> 100 µM
same,TGI,HOP-62 NSCLC,> 100 µM
same,TGI,HOP-92 NSCLC,> 100 µM
same,TGI,NCI-H460 lung,> 100 µM
same,TGI,CCRF-CEM leukemia,> 100 µM
same,TGI,K-562 leukemia,> 100 µM
same,TGI,DMS 273 small cell lung,> 100 µM
same,TGI,HCT-15 colon,> 100 µM
same,TGI,EKVX NSCLC,> 100 µM
same,TGI,SW-620 colon,> 100 µM
same,TGI,NCI-H23 lung,> 100 µM
same,TGI,CAKI-1 renal,> 100 µM
same,TGI,SF-268 CNS,> 100 µM
same,TGI,SK-MEL-5 melanoma,> 100 µM
same,TGI,UO-31 renal,> 100 µM
same,TGI,UACC-62 melanoma,> 100 µM
same,TGI,NCI-H522 lung,> 100 µM
same,TGI,OVCAR-5 ovarian,> 100 µM
same,TGI,786-0 renal,> 100 µM
same,TGI,MALME-3M melanoma,> 100 µM
same,TGI,KM20L2 colon,> 100 µM
same,TGI,IGROV1 ovarian,> 100 µM
same,TGI,RPMI-8226 leukemia,> 100 µM
same,TGI,UACC-257 melanoma,> 100 µM
same,TGI,SK-OV-3 ovarian,> 100 µM
same,TGI,OVCAR-4 ovarian,> 100 µM
same,TGI,OVCAR-3 ovarian,> 100 µM
same,TGI,HT29 colon,> 100 µM
same,TGI,OVCAR-8 ovarian,> 100 µM
same,TGI,SN12C renal,> 100 µM
same,TGI,HCC-2998 colon,> 100 µM
same,TGI,SNB-19 CNS,> 100 µM
same,TGI,M19-MEL melanoma,> 100 µM
same,TGI,LXFL 529 NSCLC,> 100 µM
same,TGI,A549 NSCLC,> 100 µM
same,TGI,TK-10 renal,> 100 µM
same,TGI,SNB-75 CNS,> 100 µM
same,TGI,RXF 393 renal,> 100 µM
same,TGI,MOLT-4 leukemia,> 100 µM
same,TGI,M14 melanoma,> 100 µM
same,TGI,COLO 205 colon,> 100 µM
CC(C)=Cc1cc(C(=O)NCCNC(=O)c2cc(C=C(C)C)nc(NC#N)n2)nc(NC#N)n1,TGI,SF-539 CNS,> 100 µM
same,TGI,XF 498 CNS,> 100 µM
same,TGI,HL-60(TB) leukemia,> 100 µM
same,TGI,LOX IMVI melanoma,> 100 µM
same,TGI,ACHN renal,> 100 µM
same,TGI,HCT-116 colon,> 100 µM
same,TGI,KM12 colon,> 100 µM
same,TGI,DMS 114 small cell lung,> 100 µM
same,TGI,SK-MEL-28 melanoma,> 100 µM
same,TGI,SF-295 CNS,> 100 µM
same,TGI,HOP-62 NSCLC,> 100 µM
same,TGI,HOP-92 NSCLC,> 100 µM
same,TGI,NCI-H460 lung,> 100 µM
same,TGI,CCRF-CEM leukemia,> 100 µM
same,TGI,K-562 leukemia,> 100 µM
same,TGI,HCT-15 colon,> 100 µM
same,TGI,EKVX NSCLC,> 100 µM
same,TGI,SW-620 colon,> 100 µM
same,TGI,NCI-H23 lung,> 100 µM
same,TGI,CAKI-1 renal,> 100 µM
same,TGI,SF-268 CNS,> 100 µM
same,TGI,SK-MEL-5 melanoma,> 100 µM
same,TGI,UO-31 renal,> 100 µM
same,TGI,UACC-62 melanoma,> 100 µM
same,TGI,NCI-H522 lung,> 100 µM
same,TGI,OVCAR-5 ovarian,> 100 µM
same,TGI,786-0 renal,> 100 µM
same,TGI,MALME-3M melanoma,> 100 µM
same,TGI,KM20L2 colon,> 100 µM
same,TGI,IGROV1 ovarian,> 100 µM
same,TGI,RPMI-8226 leukemia,> 100 µM
same,TGI,UACC-257 melanoma,> 100 µM
same,TGI,SK-OV-3 ovarian,> 100 µM
same,TGI,OVCAR-4 ovarian,> 100 µM
same,TGI,OVCAR-3 ovarian,> 100 µM
same,TGI,HT29 colon,> 100 µM
same,TGI,OVCAR-8 ovarian,> 100 µM
same,TGI,SN12C renal,> 100 µM
same,TGI,HCC-2998 colon,> 100 µM
same,TGI,A498 renal,> 100 µM
same,TGI,SNB-19 CNS,> 100 µM
same,TGI,M19-MEL melanoma,> 100 µM
same,TGI,LXFL 529 NSCLC,> 100 µM
same,TGI,A549 NSCLC,> 100 µM
same,TGI,TK-10 renal,> 100 µM
same,TGI,SNB-75 CNS,> 100 µM
same,TGI,HOP-18 NSCLC,> 100 µM
same,TGI,RXF 393 renal,> 100 µM
same,TGI,MOLT-4 leukemia,> 100 µM
same,TGI,M14 melanoma,> 100 µM
same,TGI,COLO 205 colon,> 100 µM
same,TGI,NCI-H226 lung,> 100 µM
same,TGI,U251 CNS,> 100 µM
